Test [1] deals with T1, human Y2 receptor (Homo sapiens, UniProt P49146).
T1 construct: KAN-Ts endogenously expressing Y2 receptors were used; endogenous in cells; host or cells: KAN-Ts cells
T1 sequence (P49146 1-381): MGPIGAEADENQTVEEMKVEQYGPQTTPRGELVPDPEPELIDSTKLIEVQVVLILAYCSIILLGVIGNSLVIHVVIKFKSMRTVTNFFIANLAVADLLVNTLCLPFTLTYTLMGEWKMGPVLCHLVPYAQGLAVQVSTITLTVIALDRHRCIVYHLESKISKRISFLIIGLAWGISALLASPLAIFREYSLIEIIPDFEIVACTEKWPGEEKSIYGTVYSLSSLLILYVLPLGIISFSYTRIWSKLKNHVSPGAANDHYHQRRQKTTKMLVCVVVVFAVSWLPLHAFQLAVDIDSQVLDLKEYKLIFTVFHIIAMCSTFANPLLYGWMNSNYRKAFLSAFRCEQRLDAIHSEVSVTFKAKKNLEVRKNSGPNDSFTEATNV
The experiment in a line: [35S]GTPγS binding assay in KAN-Ts cells. The test is classed as biochemical. The method, then: [^35S] GTPγS binding assay in KAN-Ts cells was performed as described in Bonaventure, P., D. Nepomuceno, C. Mazur, B. Lord, D. A. Rudolph, J. A. Jablonowski, N. I. Carruthers and T. W. Lovenberg, J Pharmacol Exp Ther. 2004, 308, 1130.
Assay mixtures (150 were preincubated with compounds for 30 minutes at ambient temperature. Then, 50 μl of [^35S]GTPγS in assay buffer was added to a final concentration of 200 pM and the assay mixtures were incubated for 1 hour at ambient temperature. Reactions were terminated by rapid filtration thought GF/C filters. Filters were washed twice with ice cold 50 mM Tris-HCl, pH 7.4 containing 10 mM MgCl2. Basal [^35S]GTPγS was measured in the absence of compounds. In initial experiments, nonspecific binding was measured in the presence of 100 μM GTPgS. This nonspecific binding never exceeded 10% of basal binding and was thus not subtracted from experimental data. Stimulation of [^35S]GTPγS was determined as percentage over basal and was calculated as one hundred times the difference between stimulated and basal binding (in cpm). […] Data are expressed as mean±S.E.M.
The antagonistic properties of the compound of formula (A) were evaluated in a [^35S]GTPγS binding assay in KAN-Ts cells endogenously expressing human Y2 receptors. […]
(In general: GTPγS resists hydrolysis and so accumulates on activated G proteins.)

The target in test [2] is T2, Y2 receptor binding sites in rat hippocampus (Rattus norvegicus, UniProt Q9ERC0).
T2 construct: from tissue; host or cells: rat brain sections (hippocampus) after in vivo dosing
T2 sequence (Q9ERC0 1-381): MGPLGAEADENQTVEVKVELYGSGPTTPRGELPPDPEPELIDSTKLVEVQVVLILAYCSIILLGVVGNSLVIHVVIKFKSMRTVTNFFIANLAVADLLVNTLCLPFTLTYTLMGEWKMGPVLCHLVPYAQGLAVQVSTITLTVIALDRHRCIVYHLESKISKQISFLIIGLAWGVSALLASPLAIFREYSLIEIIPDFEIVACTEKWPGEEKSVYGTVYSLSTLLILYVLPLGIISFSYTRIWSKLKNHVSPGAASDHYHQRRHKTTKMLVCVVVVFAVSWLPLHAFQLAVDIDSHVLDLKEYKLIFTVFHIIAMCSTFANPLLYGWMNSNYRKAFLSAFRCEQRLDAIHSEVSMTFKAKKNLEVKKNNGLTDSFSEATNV
In words: Ex vivo Y2 receptor occupancy in rats (autoradiography). The method, then:
The pharmacokinetic, blood-brain barrier penetration and ex vivo receptor occupancy studies were performed as described in Bonaventure, P., D. Nepomuceno, C. Mazur, B. Lord, D. A. Rudolph, J. A. Jablonowski, N. I. Carruthers and T. W. Lovenberg, J Pharmacol Exp Ther. 2004, 308, 1130.
The compound of formula (A) was formulated in 20% hydroxypropylbetacyclodextrine. Subcutaneous (SC), oral (PO) or intravenous (IV) dosing was followed by blood sampling via cardiac puncture over a time course. Blood samples consisted of 250 μl samples taken from the heart using a 23-gauge needle into 1.5 ml micro-centrifuge tubes. Brains were removed from the animals and bisected down the midsagittal plane. One hemisphere was frozen on dry ice for ex vivo receptor binding autoradiography and the other was homogenized for LC/MS-MS analysis.
Ex vivo receptor binding autoradiography was performed on brain sections. Twenty-micron-thick coronal sections at the level of the […] regions were collected and incubated for 10 min with 100 pM [^125I]PYY in Krebs-Ringer phosphate buffer (KRP) at pH 7.4 supplemented with 0.1% BSA, 0.05% bacitracin, and 1 μM BIBP-3226 for Y1 receptor occlusion. The sections were not washed prior to incubation and were incubated 10 minutes to avoid dissociation. Nonspecific binding was determined using adjacent sections incubated in the presence of 1 μM unlabelled hNPY. At the end of the incubation, sections were washed 4 times (4 minutes each) in ice cold buffer, dipped in deionized water and rapidly dried under a stream of cold air. Sections were exposed to a Fujifilm Imaging Plate (BAS-MS2025) for 12 hours. The Phosphor Imaging Plate was scanned using a Fuji Bio-Imaging Analyzer System (BAS-5000). The digitized computer images generated by the scanner were visualized and quantified using ImageGauge V3.12 software (Fujifilm).

The results in this text go back to patent US8338426B2, “Piperazinyl derivatives useful as modulators of the neuropeptide Y2 receptor” (Janssen Pharmaceutica NV, priority 2007, dated 2012).

What is called ED50 is the dose at which the effect has come halfway, by size or by number of responders. Low readings indicate greater potency, high ones weaker potency.

Consider `CCN(CC)C(=O)C(c1ccccc1)N1CCN(c2ccc(NC(=O)c3ccccc3-c3cccnc3)cc2F)CC1` (racemic) [Cmpd (A), N-{4-[4-(Diethylcarbamoyl-phenyl-methyl)-piperazin-1-yl]-3-fluoro-phenyl}-2-pyridin-3-yl-benzamide], for which, in test [1] (read-out: hY2 pIC50corr (converted)), the IC50 was 50.1 pM. In test [1] (up to 10 μM, no PYY), the “effect of compound by itself on [35S]GTPγS binding” value was “did not affect”. The “time of maximal receptor binding site occupancy” value in test [2] (rat hippocampus, SC 10 mg/kg) is roughly 1 h. Moreover, in test [2] (rat hippocampus, SC, t=60 min), it took a dose of 2 mg/kg to reach the 50% effect level (ED50). Besides, the receptor occupancy at 10 mg/kg in test [2] (rat, 10 mg/kg SC, read-out: maximal ex vivo receptor occupancy) was roughly 100%.
